From article PMC11045757, “Group 3 medulloblastoma transcriptional networks collapse under domain specific EP300/CBP inhibition” (Nature Communications, 2024)

System: 460 barcoded cancer cell lines
Assay: PRISM pooled barcoded cancer cell line growth screen, 10-point dose-response, 5 days, AUC
Format: cell-based
Design: scale not given here
Source text: Several small molecule inhibitors of distinct protein domains of EP300/CBP are available, though the majority target the histone acetyltransferase domain (HAT) or bromodomain (BRD)[5],[10],[21],[22]. […] We used these tools to investigate the relative contribution of the EP300/CBP BRD or HAT domain to tumor cell growth (Fig. 1a). To do so, we performed 10-point, dose-response growth assays using mixed pools of 460 barcoded cancer cell lines, over five days of treatment in vitro[33],[34]. Growth was measured using an area-under-the-curve (AUC) approach (Supplementary Table 1, Supplementary Fig. 1a). […] Given potential differences in compound penetration and solubility, and to compare the relative cell line and tumor-specific effects of these two compounds in assays performed non-simultaneously, we performed a median normalization of each dataset (Supplementary Table 2).

Structure (SMILES): CNC(=O)Nc1ccc2c(c1)CCC21OC(=O)N(CC(=O)N(Cc2ccc(F)cc2)C(C)C(F)(F)F)C1=O (stereo not shown) [Compound A485]
- AUC (SH4, Melanoma): 0.7491
- AUC (SH10TC, Gastric Cancer): 0.9483
- AUC (SHP77, Lung Cancer): 1
- AUC (SIMA, Neuroblastoma): 0.7689
- AUC (SJSA1, Osteosarcoma): 0.6938
- AUC (SKES1, Ewing Sarcoma): 0.5686
- AUC (SKHEP1, Liver Cancer): 0.9176
- AUC (SKM1, AML): 0.6691
- AUC (SKMEL30, Melanoma): 0.8035
- AUC (SKMES1, Lung Cancer): 0.6858
- AUC (SKMM2, Myeloma): 0.9139
- AUC (SKNAS, Neuroblastoma): 0.7465
- AUC (SKNBE2, Neuroblastoma): 0.711
- AUC (SKNDZ, Neuroblastoma): 0.8727
- AUC (SKNEP1, Ewing Sarcoma): 0.6902
- AUC (SKNMC, Ewing Sarcoma): 0.8779
- AUC (SKNO1, AML): 0.8126
- AUC (SKNSH, Neuroblastoma): 0.7441
- AUC (SKOV3, Ovarian Cancer): 0.768
- AUC (SKUT1, Leiomyosarcoma): 0.8397
- AUC (SNU1, Gastric Cancer): 1
- AUC (SNU46, Head and Neck Cancer): 0.6485
- AUC (SNU61, Colon/Colorectal Cancer): 0.8187
- AUC (SNU81, Colon/Colorectal Cancer): 0.8344
- AUC (SNU182, Liver Cancer): 0.5802
- AUC (SNU201, Glioblastoma): 0.8259
- AUC (SNU213, Pancreatic Cancer): 0.8601
- AUC (SNU216, Gastric Cancer): 0.8096
- AUC (SNU245, Bile Duct Cancer): 0.7564
- AUC (SNU398, Liver Cancer): 0.8358
- AUC (SNU407, Colon/Colorectal Cancer): 0.7333
- AUC (SNU423, Liver Cancer): 0.7846
- AUC (SNU449, Liver Cancer): 0.9343
- AUC (SNU466, Glioblastoma): 0.8159
- AUC (SNU478, Bile Duct Cancer): 0.7556
- AUC (SNU601, Gastric Cancer): 0.8298
- AUC (SNU668, Gastric Cancer): 0.8689
- AUC (SNU685, Endometrial/Uterine Cancer): 0.8766
- AUC (SNU719, Gastric Cancer): 0.9255
- AUC (SNU869, Bile Duct Cancer): 0.9315
- AUC (SNU878, Liver Cancer): 0.7163
- AUC (SNU886, Liver Cancer): 0.7207
- AUC (SNU1041, Head and Neck Cancer): 0.836
- AUC (SNU1066, Head and Neck Cancer): 0.7809
- AUC (SNU1076, Head and Neck Cancer): 0.7922
- AUC (SNU1077, Endometrial/Uterine Cancer): 0.8978
- AUC (SNU1079, Bile Duct Cancer): 0.8976
- AUC (SNU1105, Glioblastoma): 0.823
- AUC (SNU1196, Bile Duct Cancer): 0.8191
- AUC (SNU1214, Head and Neck Cancer): 0.7713
- AUC (SNUC2A, Colon/Colorectal Cancer): 1
- AUC (SNUC4, Colon/Colorectal Cancer): 0.6416
- AUC (SQ1, Lung Cancer): 0.8347
- AUC (SR786, Lymphoma): 0.6609
- AUC (STM9101, Rhabdoid): 0.89
- AUC (SUDHL8, Lymphoma): 0.5295
- AUC (SW48, Colon/Colorectal Cancer): 1
- AUC (SW579, Thyroid Cancer): 0.7659
- AUC (SW620, Colon/Colorectal Cancer): 0.9454
- AUC (SW780, Bladder Cancer): 0.7867
- AUC (SW837, Colon/Colorectal Cancer): 0.675
- AUC (SW900, Lung Cancer): 0.774
- AUC (SW948, Colon/Colorectal Cancer): 0.5667
- AUC (SW1088, Glioma): 0.7952
- AUC (SW1116, Colon/Colorectal Cancer): 0.9547
- AUC (SW1463, Colon/Colorectal Cancer): 0.6958
- AUC (SW1710, Bladder Cancer): 0.7157
- AUC (T3M10, Lung Cancer): 0.9036
- AUC (T24, Bladder Cancer): 0.9232
- AUC (T47D, Breast Cancer): 0.9704
- AUC (TALL1, T-acute leukemia): 0.6985
- AUC (TC71, Ewing Sarcoma): 0.9262
- AUC (TC106, Ewing Sarcoma): 0.5807
- AUC (TC205, Ewing Sarcoma): 0.554
- AUC (TCCPAN2, Pancreatic Cancer): 0.884
- AUC (TCCSUP, Bladder Cancer): 0.8481
- AUC (TE1, Esophageal Cancer): 0.8516
- AUC (TE4, Esophageal Cancer): 0.8986
- AUC (TE5, Esophageal Cancer): 0.8355
- AUC (TE6, Esophageal Cancer): 0.6845
- AUC (TE9, Esophageal Cancer): 0.9819
- AUC (TE10, Esophageal Cancer): 0.7055
- AUC (TE11, Esophageal Cancer): 0.5915
- AUC (TE15, Esophageal Cancer): 0.6898
- AUC (TE617T, Rhabdomyosarcoma): 0.7575
- AUC (TF1, AML): 0.4573
- AUC (TM87, Rhabdoid): 0.6723
- AUC (TOLEDO, Lymphoma): 0.9051
- AUC (TOV21G, Ovarian Cancer): 0.8786
- AUC (TT2609C02, Thyroid Cancer): 0.6078
- AUC (TT, Thyroid Cancer): 0.6637
- AUC (TTC442, Rhabdomyosarcoma): 0.8716
- AUC (TTC549, Rhabdoid): 0.683
- AUC (TTC642, Rhabdoid): 0.604
- AUC (TTC1240, Rhabdoid): 0.6274
- AUC (TYKNU, Ovarian Cancer): 0.7341
- AUC (U2OS, Osteosarcoma): 0.9217
- AUC (U266B1, Myeloma): 0.8925
- AUC (U937, AML): 0.6875
- AUC (UACC62, Melanoma): 0.717
- AUC (UACC257, Melanoma): 0.8193
- AUC (UBLC1, Bladder Cancer): 0.7124
- AUC (UMUC1, Bladder Cancer): 0.6454
- AUC (UW228, Medulloblastoma): 1
- AUC (VMCUB1, Bladder Cancer): 0.6611
- AUC (VMRCRCW, Kidney Cancer): 0.8987
- AUC (VMRCRCZ, Kidney Cancer): 0.5968
- AUC (WM88, Melanoma): 0.5816
- AUC (WM793, Melanoma): 0.8497
- AUC (WM983B, Melanoma): 0.7071
- AUC (YAPC, Pancreatic Cancer): 0.8726
- AUC (YD10B, Head and Neck Cancer): 0.7608
- AUC (YD15, Head and Neck Cancer): 0.6259
- AUC (YD38, Head and Neck Cancer): 0.5959
- AUC (YH13, Glioblastoma): 0.7751
